Test [1] deals with T1, alanine racemase (BsAlr) (Bacillus subtilis, UniProt P10725).
T1 construct: gene alr1; recombinant BsAlr
T1 sequence (P10725 1-389): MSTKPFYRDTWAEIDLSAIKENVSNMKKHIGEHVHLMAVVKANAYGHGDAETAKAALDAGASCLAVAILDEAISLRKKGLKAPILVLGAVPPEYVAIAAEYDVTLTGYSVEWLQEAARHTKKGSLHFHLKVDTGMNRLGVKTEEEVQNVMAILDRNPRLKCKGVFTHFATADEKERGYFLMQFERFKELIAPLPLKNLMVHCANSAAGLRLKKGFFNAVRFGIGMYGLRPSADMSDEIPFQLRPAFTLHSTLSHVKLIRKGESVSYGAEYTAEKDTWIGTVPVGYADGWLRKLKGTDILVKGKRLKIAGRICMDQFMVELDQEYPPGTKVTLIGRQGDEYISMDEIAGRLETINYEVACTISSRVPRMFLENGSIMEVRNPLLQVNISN
In words: time-dependent inactivation kinetics (kinact/Ki […] ^−[…] s^−[…]), partition ratio, dialysis. The class given is biochemical.

Test [2] addresses T2, alanine racemase (MtAlr) (Mycobacterium tuberculosis, UniProt P9WQA9).
T2 construct: gene alr
In words: time-dependent inactivation kinetics (poor inactivator, kinact/Ki […] ^−[…] s^−[…]), partition ratio […] dialysis, intact ESI-MS. Type of test: biochemical.

The target in test [3] is T3, alanine racemase (EcAlr) (Escherichia coli, UniProt P0A6B4).
T3 construct: gene alr; recombinant EcAlr
T3 sequence (P0A6B4 whole entry): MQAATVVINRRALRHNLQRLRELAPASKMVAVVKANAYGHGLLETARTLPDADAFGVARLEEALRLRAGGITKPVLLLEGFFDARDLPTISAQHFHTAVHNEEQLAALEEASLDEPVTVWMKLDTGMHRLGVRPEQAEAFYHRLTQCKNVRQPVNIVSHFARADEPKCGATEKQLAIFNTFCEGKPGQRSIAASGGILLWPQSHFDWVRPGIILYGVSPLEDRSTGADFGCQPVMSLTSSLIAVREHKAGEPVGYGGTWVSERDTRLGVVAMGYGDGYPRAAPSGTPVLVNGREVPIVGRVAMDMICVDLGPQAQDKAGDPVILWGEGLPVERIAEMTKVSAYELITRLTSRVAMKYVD
Nature of the test: time-dependent inactivation kinetics, partition ratio, dialysis, intact ESI-MS. Type of test: biochemical.

Test [4] deals with T4, glutamate racemase (BsMurI) (Bacillus subtilis, UniProt P94556).
T4 construct: gene racE; recombinant BsMurI
T4 sequence (P94556 whole entry): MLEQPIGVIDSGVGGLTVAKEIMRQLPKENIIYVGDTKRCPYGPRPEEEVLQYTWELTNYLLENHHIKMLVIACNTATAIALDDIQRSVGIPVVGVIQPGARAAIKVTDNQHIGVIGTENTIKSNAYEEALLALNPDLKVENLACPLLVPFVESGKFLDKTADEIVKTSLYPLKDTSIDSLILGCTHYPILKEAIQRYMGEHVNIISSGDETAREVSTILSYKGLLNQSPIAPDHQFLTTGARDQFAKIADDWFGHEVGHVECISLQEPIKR
In words: time-dependent inactivation kinetics (kinact/Ki), dialysis, intact ESI-MS (+[…]), tryptic LC-MS/MS. Type of test: biochemical. Conditions: read-out: time-dependent inactivation kinetics (kinact/Ki), dialysis, intact ESI-MS (+87).

Test [5] has as its target T4, glutamate racemase (BsMurI). In words: intact ESI-MS covalent adduct and tryptic LC-MS/MS. Type of test: binding.
Test [6] addresses T3, alanine racemase (EcAlr). In words: partition ratio of inactivation, purified enzyme. Type of test: biochemical.
Test [7] concerns the target T1, alanine racemase (BsAlr). In words: partition ratio of inactivation, purified enzyme. The class given is biochemical.
In test [8] the target is T2, alanine racemase (MtAlr). Nature of the test: partition ratio of inactivation, purified enzyme. Type of test: biochemical.

T2 sequence (P9WQA9 whole entry): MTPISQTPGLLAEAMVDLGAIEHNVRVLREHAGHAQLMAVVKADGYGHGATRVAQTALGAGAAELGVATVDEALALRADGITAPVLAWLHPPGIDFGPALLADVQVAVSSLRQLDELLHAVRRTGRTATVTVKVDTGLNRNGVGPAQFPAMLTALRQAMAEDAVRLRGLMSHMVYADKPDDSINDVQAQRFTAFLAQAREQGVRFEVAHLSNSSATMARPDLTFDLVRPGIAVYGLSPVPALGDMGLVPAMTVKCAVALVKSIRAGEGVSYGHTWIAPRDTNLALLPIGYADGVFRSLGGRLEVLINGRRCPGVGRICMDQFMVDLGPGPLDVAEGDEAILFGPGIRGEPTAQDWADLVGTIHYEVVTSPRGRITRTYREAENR

`N[C@H](CCl)C(=O)O` [BCDA, β-chloro-D-alanine]: the KI (inactivation) at alanine racemase (BsAlr) [1], on alanine racemase (MtAlr) [2] and at alanine racemase (EcAlr) [3] was 130 to 230 µM in each case. Moreover, the kinact/KI in test [4] is 2.7 M⁻¹ s⁻¹.
For `N[C@@H](CCl)C(=O)O` [BCLA, β-chloro-L-alanine], in test [5], the “intact ESI-MS covalent adduct and tryptic LC-MS/MS” value is “BCLA modified BsMurI predominantly at C74, the cysteine residue responsible for deprotonation of an incoming D-Glu substrate”.
As to `CC(=O)OC[C@@H](N)C(=O)O` [OADS, O-acetyl–D-serine], the “partition ratio of inactivation, purified enzyme” value on alanine racemase (EcAlr) [6] was “partition ratios were compared for the structurally and mechanistically similar Alr inhibitor O-acetyl–D-serine (OADS)”; on alanine racemase (BsAlr) [7], “partition ratios were compared for the structurally and mechanistically similar Alr inhibitor O-acetyl–D-serine (OADS)”; at alanine racemase (MtAlr) [8] it was “partition ratios were compared for the structurally and mechanistically similar Alr inhibitor O-acetyl–D-serine (OADS)”.

Source of the values: publication PMC5038272, “Glutamate Racemase Is the Primary Target of β-Chloro-D-Alanine in Mycobacterium tuberculosis” (Antimicrobial Agents and Chemotherapy, 2016).
